Experimental data as given in paper PMC8481502, “Bovine NK-lysin peptides exert potent antimicrobial activity against multidrug-resistant Salmonella outbreak isolates” (Scientific Reports, 2021).
Peptide text beside a SMILES is read from it.

How the values were obtained:
[1] = system: MDR Salmonella outbreak isolate SX238 cytoplasmic membrane; experiment: Propidium iodide (PI) uptake assay; assay type: cell-based, Salmonella enterica serovar I 4,[5],12:i:-
Experimental: The kinetics of NK2A-induced damage to Salmonella cell membranes were evaluated using PI uptake assay as described previously. Briefly, an overnight culture of MDR Salmonella outbreak isolate SX238 was centrifuged, washed with PBS, and resuspended in PBS. Ninety microliters of bacterial suspension was transferred to a 96-well opaque plate (~ 1 × 10^7 CFU/well), mixed with 10 µL of PI (final concentration = 3 µM) and incubated at 37 °C for 5 min. PBS, polymyxin B (2, 4, 25, 50 and 100 µg/mL), NK2A or Sc-NK2A (both at 2 and 5 µM) were added and PI fluorescent intensities in each well was continuously measured (15 s intervals, flex mode) using a FlexStation 3 multi-mode (fluorescent) microplate reader (Molecular Devices LLC., San Jose, CA) for up to 6 h. The excitation and emission wavelengths for PI was set up at 530 nm and 620 nm, respectively.

[2] = system: MDR Salmonella enterica serovar I 4,[5],12:i:- strain USDA15WA-1 (SX238); experiment: Growth curve assay (automated reader, OD600) with isolate SX238; assay type: cell-based; settings: for growth inhibition activity on SX238 at highest tested concentration: up to 20 µM peptide, 24 h growth curve; for time at which bacteria recovered and grew after initial inhibition: SX238, LB broth
Experimental: (§1) Overnight cultures of a MDR Salmonella outbreak isolate (SX238) and one non-MDR Salmonella isolate (SB377) were diluted 1:1000 in LB broth to obtain approximately 1 × 10^6 colony forming units per milliliter (CFU/mL). One hundred microliters of each diluted culture were transferred into honeycomb® 100-well plates (~ 1 × 10^5 CFU/well) (Growth Curves USA, Piscataway, NJ). Bovine NK-lysin peptides (NK1, NK2A, NK2B, and NK2C) were added at the final peptide concentrations of 20, 10, 5, 3.5, 2 µM in PBS (total volume = 20 µL) with a final bacterial-peptide volume of 120 µL/well. The plates were covered with lids and placed in an automated growth curve reader (Bioscreen C; Growth Curves USA, Piscataway, NJ) which was programmed for continuous shaking at 37 °C, and optical density readings at 600 nm (OD600) were recorded every hour for 24 h. […] The optical density data were analyzed, and growth curve graphs for each isolate were generated using MS Excel. […] Twenty-four-hour growth curve assays for Salmonella isolate SX238 were repeated at different bacterial CFU (~ 1 × 10^5, 1 × 10^6, 1 × 10^7, and 1 × 10^8 CFU/mL) with NK2A (5 µM and 10 µM). Sc-NK2A was included as a control for the assay.

[3] = system: Salmonella enterica serovar Typhimurium isolate UK-1 (SB377, non-MDR); experiment: Growth curve assay (automated reader, OD600) with isolate SB377; assay type: cell-based; settings: for growth inhibition activity on SB377 at highest tested concentration: up to 20 µM peptide, 24 h growth curve; for time at which bacteria recovered and grew after initial inhibition: SB377, LB broth
Experimental: as §1

[4] = system: MDR Salmonella enterica serovar Typhimurium DT193 strain 1434 (SX231); experiment: Growth curve assay (automated reader, OD600) with isolate SX231; assay type: cell-based; settings: 20 µM peptide, LB broth, 24 h growth curve
[5] = system: MDR Salmonella enterica serovar Heidelberg (SB395); experiment: Growth curve assay (automated reader, OD600) with isolate SB395; assay type: cell-based; settings: 20 µM peptide, LB broth, 24 h growth curve
[6] = system: Swiss-Webster mice; experiment: Mouse study of in vivo cytotoxic effects; settings: single intraperitoneal dose 100 µg (~ 4 mg/kg) in PBS, female Swiss-Webster mice, 5 per cage, 2-week observation
Experimental: To determine whether NK-lysin peptides show in vivo cytotoxic effects, a mouse study was conducted. Briefly, thirty 5–6 weeks old female Swiss-Webster mice (Envigo, Indianapolis, IN) were housed in groups in six individual cages (5 mice per cage) in ABSL2 facilities with ad libitum access to food and water in a 12-h light:dark cycle. After 1 week of acclimation, mice were intraperitoneally injected with a single dose of 100 µg of NK-lysin peptides (NK1, NK2A, NK2B, NK2C, or Sc-NK2A, ~ 4 mg/kg of body weight) in PBS (1 mL). Mice injected with PBS (1 mL) served as a negative control for the study. Mice were daily observed for any signs of toxicity and were euthanized 2 weeks post peptide administration.

[7] = system: Salmonella SX238; experiment: LIVE/DEAD BacLight staining, confocal laser scanning microscopy; assay type: cell-based, Salmonella enterica serovar I 4,[5],12:i:-; settings: 5 µM peptide
Experimental: The viabilities of bacteria following incubation with NK2A and Sc-NK2A were determined using culture-independent (function of the membrane integrity of the bacteria) staining technique by using LIVE/DEAD™ BacLight™ bacterial viability kit (for microscopy) as described previously. Bacteria in each treatment was visualized using a Nikon A1R + laser scanning confocal microscope (Nikon Instruments, Melville, NY) as described previously. Images were obtained using plan Apo 60 × objective lens (oil) at numerical aperture 1.4. Final figures were prepared using Adobe Photoshop Elements 11.

[8] = system: Salmonella SX238 outer- and inner-membranes; experiment: Transmission electron microscopy of peptide-treated bacteria; assay type: cell-based, Salmonella enterica serovar I 4,[5],12:i:-; settings: 20 µM peptide, 1 h at 37 °C, ~1 × 10^7 CFU/well in PBS
Experimental: Morphological changes of bacteria following incubation with NK2A and Sc-NK2A peptides were studied by TEM. An overnight culture of Salmonella (isolate SX238) was centrifuged and resuspended in PBS. One hundred microliters of bacterial suspension were placed in a Honeycomb plate (~ 1 × 10^7 CFU/well) and NK2A, Sc-NK2A (20 µM), and PBS were added and incubated at 37 °C with continuous shaking for 1 h. The bacterial suspensions were mixed with an equal volume of 3% glutaraldehyde in 0.1 M cacodylate buffer (pH 7.4) and processed for TEM as described before. Sections were examined with a FEI Tecnai G2 Biotwin (FEI Co., Hillboro, OR) TEM and images were taken with Advanced Microscopy Technologies (AMT Inc., Danvers, […]) imaging camera.

[9] = system: Salmonella isolates (MDR and non-MDR); experiment: Growth curve assay, statements over all Salmonella isolates; assay type: cell-based; settings: 24 h incubation in LB broth, MDR and non-MDR isolates
Experimental: as §1

Question: With polymyxin B [reference compound] as the compound, how does the PI uptake signal ([1]; polymyxin B 2-100 µg/mL, 6 h observation) read?
Answer: No PI uptake signal was observed

Question: What about the PI uptake signal ([1]; polymyxin B up to 100 µg/mL, 30 min observation) of the same compound?
Answer: No PI uptake signal was observed

Question: How did the “growth inhibition of SX238 at the lowest bacterial concentration” value ([2]; 10 µM peptide, 10^4 CFU/well) turn out when `CC[C@H](C)[C@H](NC(=O)[C@H](CCSC)NC(=O)[C@H](CS)NC(=O)[C@H](CCCNC(=N)N)NC(=O)[C@H](CCC(=O)O)NC(=O)[C@H](CCCCN)NC(=O)[C@H](CCCCN)NC(=O)[C@H](CS)NC(=O)[C@H](CCCCN)NC(=O)[C@H](CO)NC(=O)[C@H](CCCCN)NC(=O)CNC(=O)[C@@H](NC(=O)[C@H](CC(C)C)NC(=O)[C@H](CCCNC(=N)N)NC(=O)[C@@H](NC(=O)[C@@H](NC(=O)[C@H](C)NC(=O)[C@H](CC(C)C)NC(=O)[C@H](CO)NC(=O)[C@H](CC(C)C)NC(=O)[C@H](CO)NC(=O)[C@@H](NC(=O)[C@H](Cc1ccccc1)NC(=O)[C@@H](N)CCSC)C(C)C)[C@@H](C)O)[C@@H](C)CC)[C@@H](C)O)C(=O)N[C@@H](CC(C)C)C(=O)N[C@@H](CCCCN)C(=O)N[C@@H](CCCNC(=N)N)C(=O)N[C@@H](CCCNC(=N)N)C(=O)N[C@H](C(=O)O)C(C)C` [Sc-NK2A] (H-MFVSLSLATIRLTGKSKCKKERCMILKRRV-OH; N-terminus and C-terminus assumed) was run?
Answer: failed to inhibit bacterial growth

Question: And the “growth inhibition activity on SX238 at highest tested concentration” value ([2]; LB broth)?
Answer: failed to show Salmonella growth inhibition activity

Question: And the “growth inhibition activity on SB377 at highest tested concentration” value ([3]; LB broth)?
Answer: failed to show Salmonella growth inhibition activity

Question: What about the “growth inhibition activity on SX231 at highest tested concentration” value [4] of the same compound?
Answer: failed to show Salmonella growth inhibition activity

Question: What about the “growth inhibition activity on SB395 at highest tested concentration” value [5] of the same compound?
Answer: failed to show Salmonella growth inhibition activity

Question: And the “signs of toxicity or death” value [6]?
Answer: did not show signs of toxicity or death

Question: And the “live/dead staining result (SYTO 9 / PI)” value [7]?
Answer: did not have detectable antimicrobial activity

Question: What about the “ultrastructural changes to bacterial membranes” value [8] of the same compound?
Answer: did not cause detectable damage to the bacterial membranes

Question: What about the PI uptake signal ([1]; 5 µM peptide, 30 min, ~1 × 10^7 CFU/well in PBS, 3 µM PI) of the same compound?
Answer: did not show PI uptake signals

Question: “TVIEEASKVCSKMRLLKGLCKSIMKKFLRT [NK2C, 30-mer peptide corresponding to functional region helices 2-loop-3 of bovine NK-lysin NK2C]” was tested. Which “time at which bacteria recovered and grew after initial inhibition” value (shortened to “time … after initial inhibition”) ([2]; 10 µM peptide) did it give?
Answer: approximately 7 h

Question: And the “time … after initial inhibition” value ([2]; 20 µM peptide)?
Answer: ~20 h

Question: And the “time … after initial inhibition” value ([3]; 10 µM peptide)?
Answer: approximately 7 h

Question: And the “time … after initial inhibition” value ([3]; 20 µM peptide)?
Answer: ~20 h

Question: What about the “signs of toxicity or death” value [6] of the same compound?
Answer: did not show signs of toxicity or death

Question: For “VIIHVTSKVCSKMGLWSILCNQMMKKYLNR [NK1, 30-mer peptide corresponding to functional region helices 2-loop-3 of bovine NK-lysin NK1]”, which “growth inhibition activity on SX238 at highest tested concentration” value ([2]; LB broth) is on record?
Answer: did not show any Salmonella SX238 and SB377 growth inhibition activity

Question: And the “growth inhibition activity on SB377 at highest tested concentration” value ([3]; LB broth)?
Answer: did not show any Salmonella SX238 and SB377 growth inhibition activity

Question: What about the “signs of toxicity or death” value [6] of the same compound?
Answer: did not show signs of toxicity or death

Question: With “TVIEAASKVCGKMGPLKGLCKSITKRFLRR [NK2B, 30-mer peptide corresponding to functional region helices 2-loop-3 of bovine NK-lysin NK2B]” as the compound, how does the “peptide concentration at which growth of SX238 was completely inhibited” value ([2]; LB broth, ~1 × 10^5 CFU/well, 37 °C, OD600 every hour for 24 h, tested 2-20 µM, at least three experiments) read?
Answer: ≥ 5 µM

Question: And the “peptide concentration at which growth of SB377 was completely inhibited” value ([3]; LB broth, ~1 × 10^5 CFU/well, 37 °C, OD600 every hour for 24 h, tested 2-20 µM)?
Answer: ≥ 5 µM

Question: And the “concentrations able to inhibit growth of Salmonella during 24 h” value [9]?
Answer: 3.5 to 5 µM

Question: What about the “signs of toxicity or death” value [6] of the same compound?
Answer: did not show signs of toxicity or death
